In patent publication US20170050957A1, “4-AMINO-6-(HETEROCYCLIC)PICOLINATES AND 6-AMINO-2-(HETEROCYCLIC)PYRIMIDINE-4-CARBOXYLATES AND THEIR USE AS HERBICIDES” (Dow AgroSciences LLC, priority 2013, published 2017):

Test system: Wheat and Barley and test plant species
Experiment: Post-emergent Test III, herbicidal activity in wheat and barley (Table 17; visual injury, GR20/GR50/GR80/GR90)
Type: in vivo
Conditions: 21 d; for Visual Growth Reduction (%) 21 Days After Application, CIRAR / Visual Growth Reduction (%) 21 Days After Application, GALAP / Visual Growth Reduction (%) 21 Days After Application, HORVS / Visual Growth Reduction (%) 21 Days After Application, KCHSC / Visual Growth Reduction (%) 21 Days After Application, LAMPU / Visual Growth Reduction (%) 21 Days After Application, MATCH / Visual Growth Reduction (%) 21 Days After Application, PAPRH / Visual Growth Reduction (%) 21 Days After Application, SASKR / Visual Growth Reduction (%) 21 Days After Application, SINAR / Visual Growth Reduction (%) 21 Days After Application, TRZAS / Visual Growth Reduction (%) 21 Days After Application, VERPE / Visual Growth Reduction (%) 21 Days After Application, VIOTR: post-emergent
Procedure: Post-emergent Test III. Seeds of the desired test plant species were planted in Sun Gro MetroMix® 306 planting mixture, which typically has a pH of 6.0 to 6.8 and an organic matter content of about 30 percent, in plastic pots with a surface area of 103.2 square centimeters (cm^2). When required to ensure good germination and healthy plants, a fungicide treatment and/or other chemical or physical treatment was applied. The plants were grown for 7-36 days (d) in a greenhouse with an approximate 14 hour (h) photoperiod which was maintained at about 18° C. during the day and 17° C. during the night. Nutrients and water were added on a regular basis and supplemental lighting was provided with overhead metal halide 1000-Watt lamps as necessary. The plants were employed for testing when they reached the second or third true leaf stage.
A weighed amount, determined by the highest rate to be tested, of each test compound was placed in a 25 mL glass vial and was dissolved in 4 mL of a 97:3 v/v mixture of acetone and DMSO to obtain concentrated stock solutions. […] The concentrated stock solutions obtained were diluted with 20 mL of an aqueous mixture containing acetone, water, isopropyl alcohol, DMSO, Agri-Dex crop oil concentrate, and X-77 surfactant in a 48:39:10:1.5:1.5:0.02 v/v ratio to obtain spray solutions containing the highest application rates. Additional application rates were obtained by serial dilution of 12 mL of the high rate solution into a solution containing 2 mL of 97:3 v/v mixture of acetone and DMSO and 10 mL of an aqueous mixture containing acetone, water, isopropyl alcohol, DMSO, Agri-Dex crop oil concentrate, and X-77 surfactant in a 48:39:10:1.5:1.5:0.02 v/v ratio to obtain 1/2×, 1/4×, 1/8× and 1/16× rates of the high rate. Compound requirements are based upon a 12 mL application volume at a rate of 187 liters per hectare (L/ha). Formulated compounds were applied to the plant material with an overhead Mandel track sprayer equipped with 8002E nozzles calibrated to deliver 187 L/ha over an application area of 0.503 square meters at a spray height of 18 inches (43 cm) above the average plant canopy height. Control plants were sprayed in the same manner with the solvent blank.
The treated plants and control plants were placed in a greenhouse as described above and watered by subirrigation to prevent wash-off of the test compounds. After 21 d, the condition of the test plants as compared with that of the untreated plants was determined visually and scored on a scale of 0 to 100 percent where 0 corresponds to no injury and 100 corresponds to complete kill. By applying the well-accepted probit analysis as described by J. Berkson in Journal of the American Statistical […], 48, 565 (1953) and by D. Finney in “Probit Analysis” Cambridge University Press (1952), the above data can be used to calculate GR20, GR50, GR80 and GR90 values, which are defined as growth reduction factors that correspond to the effective dose of herbicide required to kill or control 20 percent, 50 percent, 80 percent or 90 percent, respectively, of a target plant.

COC(=O)c1nc(-c2ccc(Cl)c3ccoc23)c(F)c(N)c1Cl [Compound 2.24]
Visual Growth Reduction (%) 21 Days After Application, CIRAR (CIRAR, 17.5 g ai/ha): D (60-74)
Visual Growth Reduction (%) 21 Days After Application, CIRAR (CIRAR, 35 g ai/ha): C (75-84)
Visual Growth Reduction (%) 21 Days After Application, CIRAR (CIRAR, 70 g ai/ha): B (85-94)
GR50, CIRAR (CIRAR, dose for 50 percent growth reduction, probit analysis): 14 g ai/ha
GR80, CIRAR (CIRAR, dose for 80 percent growth reduction, probit analysis): 35 g ai/ha
GR90, CIRAR (CIRAR, dose for 90 percent growth reduction, probit analysis): 57 g ai/ha
Visual Growth Reduction (%) 21 Days After Application, GALAP (GALAP, 17.5 g ai/ha): D (60-74)
Visual Growth Reduction (%) 21 Days After Application, GALAP (GALAP, 35 g ai/ha): B (85-94)
Visual Growth Reduction (%) 21 Days After Application, GALAP (GALAP, 70 g ai/ha): B (85-94)
GR50, GALAP (GALAP, dose for 50 percent growth reduction, probit analysis): 7 g ai/ha
GR80, GALAP (GALAP, dose for 80 percent growth reduction, probit analysis): 23 g ai/ha
GR90, GALAP (GALAP, dose for 90 percent growth reduction, probit analysis): 44 g ai/ha
Visual Growth Reduction (%) 21 Days After Application, HORVS (HORVS, 17.5 g ai/ha): G (0-29)
Visual Growth Reduction (%) 21 Days After Application, HORVS (HORVS, 35 g ai/ha): G (0-29)
Visual Growth Reduction (%) 21 Days After Application, HORVS (HORVS, 70 g ai/ha): G (0-29)
GR20, HORVS (HORVS, dose for 20 percent growth reduction, probit analysis): 66 g ai/ha
Visual Growth Reduction (%) 21 Days After Application, KCHSC (KCHSC, 17.5 g ai/ha): D (60-74)
Visual Growth Reduction (%) 21 Days After Application, KCHSC (KCHSC, 35 g ai/ha): C (75-84)
Visual Growth Reduction (%) 21 Days After Application, KCHSC (KCHSC, 70 g ai/ha): B (85-94)
GR50, KCHSC (KCHSC, dose for 50 percent growth reduction, probit analysis): 4 g ai/ha
GR80, KCHSC (KCHSC, dose for 80 percent growth reduction, probit analysis): 33 g ai/ha
GR90, KCHSC (KCHSC, dose for 90 percent growth reduction, probit analysis): 103 g ai/ha
Visual Growth Reduction (%) 21 Days After Application, LAMPU (LAMPU, 17.5 g ai/ha): E (45-59)
Visual Growth Reduction (%) 21 Days After Application, LAMPU (LAMPU, 35 g ai/ha): D (60-74)
Visual Growth Reduction (%) 21 Days After Application, LAMPU (LAMPU, 70 g ai/ha): C (75-84)
GR50, LAMPU (LAMPU, dose for 50 percent growth reduction, probit analysis): 15 g ai/ha
GR80, LAMPU (LAMPU, dose for 80 percent growth reduction, probit analysis): 93 g ai/ha
GR90, LAMPU (LAMPU, dose for 90 percent growth reduction, probit analysis): >140 g ai/ha
Visual Growth Reduction (%) 21 Days After Application, MATCH (MATCH, 17.5 g ai/ha): G (0-29)
Visual Growth Reduction (%) 21 Days After Application, MATCH (MATCH, 35 g ai/ha): G (0-29)
Visual Growth Reduction (%) 21 Days After Application, MATCH (MATCH, 70 g ai/ha): G (0-29)
GR50, MATCH (MATCH, dose for 50 percent growth reduction, probit analysis): 114 g ai/ha
GR80, MATCH (MATCH, dose for 80 percent growth reduction, probit analysis): >140 g ai/ha
GR90, MATCH (MATCH, dose for 90 percent growth reduction, probit analysis): >140 g ai/ha
Visual Growth Reduction (%) 21 Days After Application, PAPRH (PAPRH, 17.5 g ai/ha): D (60-74)
Visual Growth Reduction (%) 21 Days After Application, PAPRH (PAPRH, 35 g ai/ha): D (60-74)
Visual Growth Reduction (%) 21 Days After Application, PAPRH (PAPRH, 70 g ai/ha): C (75-84)
GR50, PAPRH (PAPRH, dose for 50 percent growth reduction, probit analysis): 24 g ai/ha
GR80, PAPRH (PAPRH, dose for 80 percent growth reduction, probit analysis): 52 g ai/ha
GR90, PAPRH (PAPRH, dose for 90 percent growth reduction, probit analysis): 77 g ai/ha
Visual Growth Reduction (%) 21 Days After Application, SASKR (SASKR, 17.5 g ai/ha): D (60-74)
Visual Growth Reduction (%) 21 Days After Application, SASKR (SASKR, 35 g ai/ha): B (85-94)
Visual Growth Reduction (%) 21 Days After Application, SASKR (SASKR, 70 g ai/ha): B (85-94)
GR50, SASKR (SASKR, dose for 50 percent growth reduction, probit analysis): 3 g ai/ha
GR80, SASKR (SASKR, dose for 80 percent growth reduction, probit analysis): 28 g ai/ha
GR90, SASKR (SASKR, dose for 90 percent growth reduction, probit analysis): 95 g ai/ha
Visual Growth Reduction (%) 21 Days After Application, SINAR (SINAR, 17.5 g ai/ha): B (85-94)
Visual Growth Reduction (%) 21 Days After Application, SINAR (SINAR, 35 g ai/ha): A (95-100)
Visual Growth Reduction (%) 21 Days After Application, SINAR (SINAR, 70 g ai/ha): A (95-100)
GR50, SINAR (SINAR, dose for 50 percent growth reduction, probit analysis): 6 g ai/ha
GR80, SINAR (SINAR, dose for 80 percent growth reduction, probit analysis): 13 g ai/ha
GR90, SINAR (SINAR, dose for 90 percent growth reduction, probit analysis): 19 g ai/ha
Visual Growth Reduction (%) 21 Days After Application, TRZAS (TRZAS, 17.5 g ai/ha): G (0-29)
Visual Growth Reduction (%) 21 Days After Application, TRZAS (TRZAS, 35 g ai/ha): G (0-29)
Visual Growth Reduction (%) 21 Days After Application, TRZAS (TRZAS, 70 g ai/ha): F (30-44)
GR20, TRZAS (TRZAS, dose for 20 percent growth reduction, probit analysis): 52 g ai/ha
Visual Growth Reduction (%) 21 Days After Application, VERPE (VERPE, 17.5 g ai/ha): F (30-44)
Visual Growth Reduction (%) 21 Days After Application, VERPE (VERPE, 35 g ai/ha): D (60-74)
Visual Growth Reduction (%) 21 Days After Application, VERPE (VERPE, 70 g ai/ha): C (75-84)
GR50, VERPE (VERPE, dose for 50 percent growth reduction, probit analysis): 30 g ai/ha
GR80, VERPE (VERPE, dose for 80 percent growth reduction, probit analysis): 66 g ai/ha
GR90, VERPE (VERPE, dose for 90 percent growth reduction, probit analysis): 100 g ai/ha
Visual Growth Reduction (%) 21 Days After Application, VIOTR (VIOTR, 17.5 g ai/ha): E (45-59)
Visual Growth Reduction (%) 21 Days After Application, VIOTR (VIOTR, 35 g ai/ha): D (60-74)
Visual Growth Reduction (%) 21 Days After Application, VIOTR (VIOTR, 70 g ai/ha): C (75-84)
GR50, VIOTR (VIOTR, dose for 50 percent growth reduction, probit analysis): 24 g ai/ha
GR80, VIOTR (VIOTR, dose for 80 percent growth reduction, probit analysis): 78 g ai/ha
GR90, VIOTR (VIOTR, dose for 90 percent growth reduction, probit analysis): >140 g ai/ha
